The CheMixHub viscosity set
“And” between values parts separate entries of the source, which are not always exact repeats. Equal values may be shown once.

Assay: xn = mol fraction of the nth substance listed

CC1CCCC(C)C1=O (centres undefined) + COc1ccccc1N
viscosity [mPa·s], 100 kPa
Conditions	x2 = 0.0997	x2 = 0.1852	x2 = 0.2554	x2 = 0.3527	x2 = 0.4551	x2 = 0.5424	x2 = 0.6519	x2 = 0.7414	x2 = 0.8479
303.15 K	3.865	3.998	4.106	4.247	4.383	4.491	4.612	4.701	4.797
308.15 K	3.412	3.557	3.673	3.825	3.972	4.09	4.227	4.325	4.435
313.15 K	2.958	3.116	3.239	3.401	3.56	3.687	3.84	3.948	4.071

C1CCC2=[NH+]CCCN2CC1.c1c[n-]cn1 + CS(C)=O
298.15 K, 100 kPa
Conditions	viscosity [mPa·s]
x1 = 0.0998	3.113
x1 = 0.1996	4.415
x1 = 0.2995	6.054
x1 = 0.3994	8.104
x1 = 0.4994	10.52
x1 = 0.5994	13.65
x1 = 0.6995	17.39
x1 = 0.7996	22.07
x1 = 0.8998	27.44

CC(=O)O + CS(C)=O
viscosity [mPa·s]
Conditions	298.15 K	303.15 K	308.15 K	313.15 K	318.15 K	323.15 K
101 kPa, x2 = 0.2	2.359	–	–	–	–	–
101 kPa, x2 = 0.4	2.806	–	–	–	–	–
101 kPa, x2 = 0.6	2.525	–	–	–	–	–
101 kPa, x2 = 0.8	2.231	–	–	–	–	–
101.33 kPa, x1 = 0.0999	–	1.891	1.728	1.588	1.463	1.353
101.33 kPa, x1 = 0.199	–	1.975	1.803	1.655	1.525	1.411
101.33 kPa, x1 = 0.2973	–	2.082	1.898	1.738	1.605	1.482
101.33 kPa, x1 = 0.4013	–	2.265	2.06	1.884	1.732	1.59
101.33 kPa, x1 = 0.5005	–	2.383	2.165	1.975	1.809	1.664
101.33 kPa, x1 = 0.5997	–	2.46	2.223	2.024	1.848	1.695
101.33 kPa, x1 = 0.6966	–	2.374	2.148	1.946	1.78	1.628
101.33 kPa, x1 = 0.8068	–	2.05	1.857	1.694	1.549	1.425
101.33 kPa, x1 = 0.9006	–	1.601	1.464	1.345	1.241	1.149
101.33 kPa, x2 = 0.0978	1.755	–	1.458	–	1.229	–
101.33 kPa, x2 = 0.1997	2.299	–	1.876	–	1.552	–
101.33 kPa, x2 = 0.2991	2.631	–	2.142	–	1.762	–
101.33 kPa, x2 = 0.4069	2.728	–	2.228	–	1.84	–
101.33 kPa, x2 = 0.5247	2.661	–	2.17	–	1.784	–
101.33 kPa, x2 = 0.6036	2.465	–	2.034	–	1.694	–
101.33 kPa, x2 = 0.7038	2.303	–	1.91	–	1.591	–
101.33 kPa, x2 = 0.804	2.178	–	1.804	–	1.507	–
101.33 kPa, x2 = 0.903	2.081	–	1.733	–	1.443	–

CC(=O)O + Cc1ccc(C)cc1
viscosity, 101 kPa
Conditions	x2 = 0.0592	x2 = 0.124	x2 = 0.1952	x2 = 0.2738	x2 = 0.3615	x2 = 0.4596	x2 = 0.569	x2 = 0.6934	x2 = 0.8354
303.15 K	0.8817 mPa·s and 0.882 mPa·s	0.7951 mPa·s and 0.795 mPa·s	0.7314 mPa·s and 0.731 mPa·s	0.6755 mPa·s and 0.676 mPa·s	0.6446 mPa·s and 0.645 mPa·s	0.6109 mPa·s and 0.611 mPa·s	0.5923 mPa·s and 0.592 mPa·s	0.58 mPa·s and 0.58 mPa·s	0.571 mPa·s and 0.571 mPa·s
308.15 K	0.8236 mPa·s	0.7455 mPa·s	0.685 mPa·s	0.6373 mPa·s	0.6095 mPa·s	0.5737 mPa·s	0.5606 mPa·s	0.5476 mPa·s	0.5393 mPa·s
313.15 K	0.7876 mPa·s	0.7172 mPa·s	0.6617 mPa·s	0.6171 mPa·s	0.5816 mPa·s	0.5522 mPa·s	–	0.5233 mPa·s	–
318.15 K	0.7347 mPa·s	0.6716 mPa·s	0.6249 mPa·s	0.5798 mPa·s	0.5483 mPa·s	0.5222 mPa·s	0.5018 mPa·s	0.4927 mPa·s	0.4862 mPa·s
323.15 K	0.6874 mPa·s and 0.687 mPa·s	0.6339 mPa·s and 0.634 mPa·s	0.5878 mPa·s and 0.588 mPa·s	0.5468 mPa·s and 0.547 mPa·s	0.5158 mPa·s and 0.516 mPa·s	0.4913 mPa·s and 0.491 mPa·s	0.4775 mPa·s and 0.478 mPa·s	0.4674 mPa·s and 0.467 mPa·s	0.4608 mPa·s and 0.461 mPa·s

ClCCl + Cc1ccc(C)cc1
101 kPa
Conditions	viscosity [mPa·s]
293.15 K, x1 = 0.2949	0.59
293.15 K, x1 = 0.4409	0.561
293.15 K, x1 = 0.5522	0.535
293.15 K, x1 = 0.609	0.522
293.15 K, x1 = 0.6936	0.504
293.15 K, x1 = 0.7459	0.492
293.15 K, x1 = 0.8125	0.476
293.15 K, x1 = 0.8558	0.468
298.15 K, x1 = 0.2347	0.568
298.15 K, x1 = 0.3846	0.541
298.15 K, x1 = 0.4518	0.529
298.15 K, x1 = 0.5662	0.504
298.15 K, x1 = 0.6375	0.488
298.15 K, x1 = 0.6972	0.476
298.15 K, x1 = 0.7342	0.467
298.15 K, x1 = 0.7892	0.457
298.15 K, x1 = 0.8376	0.451
303.15 K, x1 = 0.2286	0.539
303.15 K, x1 = 0.3627	0.515
303.15 K, x1 = 0.4362	0.502
303.15 K, x1 = 0.5371	0.483
303.15 K, x1 = 0.624	0.463
303.15 K, x1 = 0.6948	0.448
303.15 K, x1 = 0.7643	0.433
303.15 K, x1 = 0.818	0.427

ClCCl + Cc1cccc(C)c1
101 kPa
Conditions	viscosity [mPa·s]
293.15 K, x1 = 0.2258	0.583
293.15 K, x1 = 0.4249	0.553
293.15 K, x1 = 0.4896	0.541
293.15 K, x1 = 0.5542	0.528
293.15 K, x1 = 0.6288	0.512
293.15 K, x1 = 0.769	0.482
293.15 K, x1 = 0.8151	0.472
298.15 K, x1 = 0.2398	0.55
298.15 K, x1 = 0.4075	0.527
298.15 K, x1 = 0.4997	0.511
298.15 K, x1 = 0.5622	0.501
298.15 K, x1 = 0.6288	0.485
298.15 K, x1 = 0.6891	0.474
298.15 K, x1 = 0.7634	0.461
298.15 K, x1 = 0.8183	0.451
298.15 K, x1 = 0.8586	0.446
303.15 K, x1 = 0.3947	0.501
303.15 K, x1 = 0.4925	0.483
303.15 K, x1 = 0.5836	0.466
303.15 K, x1 = 0.6551	0.453
303.15 K, x1 = 0.7164	0.441
303.15 K, x1 = 0.7934	0.428
303.15 K, x1 = 0.8418	0.421
303.15 K, x1 = 0.8669	0.417
